Test results taken from ChEMBL document CHEMBL2073944 (Eur J Pharmacol, 2003).
Structures can show the parent of a compound that is named as a salt.

Legend:
Type in all cases: functional, cell-based
[1] = target: T1, Solute carrier family 22 member 11 (Homo sapiens, UniProt Q9NSA0); experiment: TP_TRANSPORTER: uptake in OAT4-S2 cells; conditions: mouse
T1 sequence (Q9NSA0 whole entry): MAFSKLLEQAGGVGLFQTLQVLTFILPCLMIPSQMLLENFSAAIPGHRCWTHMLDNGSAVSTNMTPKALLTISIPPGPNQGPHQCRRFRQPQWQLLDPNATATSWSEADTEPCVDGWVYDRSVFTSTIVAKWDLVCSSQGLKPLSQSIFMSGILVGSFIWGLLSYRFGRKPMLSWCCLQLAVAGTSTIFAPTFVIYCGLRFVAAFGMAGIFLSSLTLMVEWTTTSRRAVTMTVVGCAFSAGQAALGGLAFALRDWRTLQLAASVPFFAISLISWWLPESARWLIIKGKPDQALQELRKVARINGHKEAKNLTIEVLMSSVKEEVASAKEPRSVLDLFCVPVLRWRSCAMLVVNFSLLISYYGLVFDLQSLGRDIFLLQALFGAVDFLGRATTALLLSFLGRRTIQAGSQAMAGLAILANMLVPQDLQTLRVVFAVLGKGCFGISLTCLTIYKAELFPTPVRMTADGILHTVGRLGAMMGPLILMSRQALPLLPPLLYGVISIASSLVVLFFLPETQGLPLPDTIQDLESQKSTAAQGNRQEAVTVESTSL

[2] = target: T1, Solute carrier family 22 member 11; experiment: TP_TRANSPORTER: inhibition of E1S uptake (E1S: 5 uM, indoxyl sulfate:500 uM) in S2 cells expressing human-OAT4
[3] = target: T2, Organic anion transporter 3 (Homo sapiens, UniProt Q8TCC7); experiment: TP_TRANSPORTER: uptake in OAT3-S2 cells; conditions: mouse
T2 sequence (Q8TCC7 whole entry): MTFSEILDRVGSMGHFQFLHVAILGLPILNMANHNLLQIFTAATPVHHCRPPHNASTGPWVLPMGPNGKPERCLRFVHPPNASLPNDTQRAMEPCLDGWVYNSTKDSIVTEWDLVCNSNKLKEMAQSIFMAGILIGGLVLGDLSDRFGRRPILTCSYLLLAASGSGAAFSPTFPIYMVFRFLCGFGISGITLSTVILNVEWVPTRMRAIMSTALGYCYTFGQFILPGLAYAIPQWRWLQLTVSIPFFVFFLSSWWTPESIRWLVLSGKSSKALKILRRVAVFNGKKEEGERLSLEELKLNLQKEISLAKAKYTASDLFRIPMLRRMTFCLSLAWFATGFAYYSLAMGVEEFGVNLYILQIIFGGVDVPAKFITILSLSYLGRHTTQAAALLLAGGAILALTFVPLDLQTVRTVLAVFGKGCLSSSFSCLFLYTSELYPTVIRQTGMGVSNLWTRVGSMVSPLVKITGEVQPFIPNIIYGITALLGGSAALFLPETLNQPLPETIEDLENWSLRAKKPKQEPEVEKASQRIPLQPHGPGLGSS

[4] = target: T1, Solute carrier family 22 member 11; experiment: TP_TRANSPORTER: uptake&inhibition of estrone sulfate in OAT4-S2 cells

For `O=S(=O)(O)Oc1c[nH]c2ccccc12` [INDOXYL SULFATE], the Activity [1] was “substrate []”, the Ki [2] was 181 µM and the Activity [3] was “substrate []”. It also gave a Ki [4] of 181 µM.
